Experimental findings from ChEMBL document CHEMBL5030545, “Discovery of clinical candidate Sivopixant (S-600918): Lead optimization of dioxotriazine derivatives as selective P2X3 receptor antagonists” (Bioorg Med Chem Lett, 2021) are described below.

Converted amounts (≈) assume the structure as drawn. Where only a bound is given, the exact number is not on record here.

Series [1] concerns the target Cytochrome P450 2D6 (Homo sapiens, UniProt P10635). The series is described as follows: Inhibition of CYP2D6 (unknown origin). In kind it is functional.
Series [2] has as its target T1, P2X purinoceptor 1 (Homo sapiens, UniProt P51575).
T1 sequence (P51575 whole entry): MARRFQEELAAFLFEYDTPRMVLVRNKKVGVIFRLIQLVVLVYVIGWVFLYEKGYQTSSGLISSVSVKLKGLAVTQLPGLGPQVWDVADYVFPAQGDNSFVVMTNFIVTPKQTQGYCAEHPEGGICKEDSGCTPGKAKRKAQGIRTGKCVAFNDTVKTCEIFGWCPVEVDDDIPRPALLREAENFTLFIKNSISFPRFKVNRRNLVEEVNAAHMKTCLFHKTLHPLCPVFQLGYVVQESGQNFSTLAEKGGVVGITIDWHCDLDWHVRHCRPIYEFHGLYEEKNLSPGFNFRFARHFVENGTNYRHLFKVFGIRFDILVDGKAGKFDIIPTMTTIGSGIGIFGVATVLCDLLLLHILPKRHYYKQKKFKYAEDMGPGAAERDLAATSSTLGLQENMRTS
The series is described as follows: Antagonist activity at P2X1 receptor (unknown origin).

Series [3] deals with T2, P2X purinoceptor 4 (Homo sapiens, UniProt Q99571).
T2 sequence (Q99571 whole entry): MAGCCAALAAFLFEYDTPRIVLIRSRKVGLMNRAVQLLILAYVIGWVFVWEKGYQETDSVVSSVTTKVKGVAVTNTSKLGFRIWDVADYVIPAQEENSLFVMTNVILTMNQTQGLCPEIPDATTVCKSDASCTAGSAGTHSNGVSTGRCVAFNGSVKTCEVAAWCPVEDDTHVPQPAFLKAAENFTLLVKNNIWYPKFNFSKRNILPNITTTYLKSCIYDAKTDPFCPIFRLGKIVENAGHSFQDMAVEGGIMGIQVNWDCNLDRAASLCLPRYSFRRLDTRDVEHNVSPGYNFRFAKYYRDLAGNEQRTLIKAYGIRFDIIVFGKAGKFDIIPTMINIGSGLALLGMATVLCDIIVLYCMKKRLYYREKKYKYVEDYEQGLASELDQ
The series is described as follows: Antagonist activity at P2X4 receptor (unknown origin).

Series [4] in a line: Half life in rat at 1 mg/kg, iv. Type of series: ADME, organism-based. The note with it: in vivo.
The nature of series [5]: Cmax in rat at 3 mg/kg, po. In kind it is ADME, organism-based. Further details: route oral, dose 3 mg/kg. The note with it: in vivo.
The target in series [6] is T3, P2X purinoceptor 7 (Homo sapiens, UniProt Q99572).
T3 sequence (Q99572 whole entry): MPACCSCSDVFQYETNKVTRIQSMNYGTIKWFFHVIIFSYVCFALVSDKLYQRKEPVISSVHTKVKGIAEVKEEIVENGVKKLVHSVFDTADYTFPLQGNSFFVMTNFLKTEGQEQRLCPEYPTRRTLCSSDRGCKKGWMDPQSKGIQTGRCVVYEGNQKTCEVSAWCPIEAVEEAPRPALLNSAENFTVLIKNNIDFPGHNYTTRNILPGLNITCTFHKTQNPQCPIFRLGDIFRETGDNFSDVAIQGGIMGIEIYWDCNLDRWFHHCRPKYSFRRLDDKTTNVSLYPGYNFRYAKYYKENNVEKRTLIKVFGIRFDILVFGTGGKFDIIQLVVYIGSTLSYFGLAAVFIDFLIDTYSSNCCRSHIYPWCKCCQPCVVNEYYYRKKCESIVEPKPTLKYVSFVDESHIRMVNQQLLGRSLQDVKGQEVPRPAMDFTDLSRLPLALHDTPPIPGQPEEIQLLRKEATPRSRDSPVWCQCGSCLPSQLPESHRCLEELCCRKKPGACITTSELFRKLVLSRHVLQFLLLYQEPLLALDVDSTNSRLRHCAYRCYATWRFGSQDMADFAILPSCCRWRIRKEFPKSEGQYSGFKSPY
Briefly: Antagonist activity at P2X7 receptor (unknown origin).

Series [7] can be described thus: Ratio of free plasma concentration in rat measured after 3 hrs to IC50 of P2X3 (unknown origin). Type of series: ADME.
Series [8] in a line: Oral bioavailability in rat at 1 mg/kg administered as cassette dose. In kind it is ADME, organism-based. The note with it: in vivo.
The nature of series [9]: Oral bioavailability in rat at 3 mg/kg. In kind it is ADME, organism-based. The note with it: in vivo.
Series [10] is described as follows: Free plasma concentration in rat plasma at 1 mg/kg administered as cassette dose. Type of series: ADME, organism-based. The note with it: in vivo.
Series [11] is described as follows: Solubility of the compound in JP2 fluid at pH 6.8. In kind it is physicochemical.
In series [12] the target is T4, Cytochrome P450 1A2 (Homo sapiens, UniProt P05177).
T4 sequence (P05177 whole entry): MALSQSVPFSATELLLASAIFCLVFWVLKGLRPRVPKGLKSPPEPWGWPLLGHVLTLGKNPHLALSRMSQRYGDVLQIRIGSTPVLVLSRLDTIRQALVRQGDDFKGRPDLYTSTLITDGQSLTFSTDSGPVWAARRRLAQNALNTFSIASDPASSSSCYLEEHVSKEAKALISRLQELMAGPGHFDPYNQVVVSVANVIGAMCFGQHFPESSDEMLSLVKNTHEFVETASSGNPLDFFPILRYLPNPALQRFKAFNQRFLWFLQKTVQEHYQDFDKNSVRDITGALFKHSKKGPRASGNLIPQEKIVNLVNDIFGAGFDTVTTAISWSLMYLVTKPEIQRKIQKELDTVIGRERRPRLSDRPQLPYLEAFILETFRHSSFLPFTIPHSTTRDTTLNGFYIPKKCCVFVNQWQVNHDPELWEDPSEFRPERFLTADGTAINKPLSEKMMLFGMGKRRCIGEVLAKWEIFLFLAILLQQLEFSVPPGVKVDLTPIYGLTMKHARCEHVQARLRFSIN
Briefly: Inhibition of CYP1A2 (unknown origin). In kind it is ADME.

Series [13] concerns the target Cytochrome P450 2C9 (Homo sapiens, UniProt P11712). The series is described as follows: Inhibition of CYP2C9 (unknown origin). In kind it is ADME.
Series [14] in a line: AUC in rat at 3 mg/kg, po. Type of series: ADME, organism-based. Set-up: dose 3 mg/kg. The following applies: in vivo.
Series [15] deals with Rattus norvegicus. Briefly: Analgesic activity in rat model of partial sciatic nerve ligation-induced neuropathic pain assessed as reversal of allodynia at 3 mg/kg, po measured after 3 hrs relative to control. Type of series: functional.
A short description of series [16]: Solubility of the compound in pH 1.2 JP1 fluid. In kind it is physicochemical.
A short description of series [17]: Clearance in rat at 1 mg/kg, iv. Type of series: ADME, organism-based. The following applies: in vivo.
For series [18], the system named is Rattus norvegicus. The series is described as follows: Analgesic activity in po dosed rat model of partial sciatic nerve ligation-induced neuropathic pain. Type of series: functional.
For series [19], the system named is Rattus norvegicus. Briefly: Analgesic activity in rat model of partial sciatic nerve ligation-induced neuropathic pain assessed as maximum efficacy at 3 mg/kg, po relative to control. In kind it is functional.
Series [20] in a line: Protein binding in rat plasma assessed as unbound fraction at 3 mg/kg, iv. In kind it is ADME, organism-based.
In series [21] the target is Cytochrome P450 2C19 (Homo sapiens, UniProt P33261). The series is described as follows: Inhibition of CYP2C19 (unknown origin). Type of series: ADME.
Chain of Cytochrome P450 2C19 (P33261 whole entry): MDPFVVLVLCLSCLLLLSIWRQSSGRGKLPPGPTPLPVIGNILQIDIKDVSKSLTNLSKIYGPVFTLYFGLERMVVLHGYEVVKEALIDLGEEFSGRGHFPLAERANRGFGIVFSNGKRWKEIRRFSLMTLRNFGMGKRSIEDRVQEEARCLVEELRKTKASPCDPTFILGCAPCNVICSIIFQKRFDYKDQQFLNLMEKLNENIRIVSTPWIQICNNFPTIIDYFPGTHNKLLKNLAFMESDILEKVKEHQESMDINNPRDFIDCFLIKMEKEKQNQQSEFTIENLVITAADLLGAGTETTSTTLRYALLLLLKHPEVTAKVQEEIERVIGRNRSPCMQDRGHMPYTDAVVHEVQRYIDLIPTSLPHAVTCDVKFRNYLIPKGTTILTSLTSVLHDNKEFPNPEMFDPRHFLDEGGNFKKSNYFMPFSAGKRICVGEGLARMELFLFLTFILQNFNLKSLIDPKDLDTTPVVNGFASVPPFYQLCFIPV
Series [22] deals with Cytochrome P450 3A4 (Homo sapiens, UniProt P08684). The series is described as follows: Inhibition of CYP3A4 (unknown origin). Type of series: ADME.
Chain of Cytochrome P450 3A4 (P08684 whole entry): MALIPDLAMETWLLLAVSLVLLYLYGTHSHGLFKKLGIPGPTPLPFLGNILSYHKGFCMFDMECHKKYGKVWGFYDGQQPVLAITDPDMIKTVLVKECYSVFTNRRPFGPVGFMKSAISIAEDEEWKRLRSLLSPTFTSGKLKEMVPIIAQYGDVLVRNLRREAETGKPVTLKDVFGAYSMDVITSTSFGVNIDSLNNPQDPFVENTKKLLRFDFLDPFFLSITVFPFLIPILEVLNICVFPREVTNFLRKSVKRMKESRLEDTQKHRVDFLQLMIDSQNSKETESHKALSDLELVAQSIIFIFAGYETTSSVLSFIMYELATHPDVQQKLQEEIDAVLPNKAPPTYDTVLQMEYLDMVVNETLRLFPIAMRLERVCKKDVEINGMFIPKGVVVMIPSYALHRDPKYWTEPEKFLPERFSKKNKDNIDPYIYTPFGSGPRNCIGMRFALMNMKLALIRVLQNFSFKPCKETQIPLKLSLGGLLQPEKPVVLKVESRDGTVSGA
Series [23] in a line: Ratio of plasma concentration in rat measured after 3 hrs to IC50 of P2X3 (unknown origin). Type of series: ADME. The note with it: in vivo.

Chain of Cytochrome P450 2C9 (P11712 whole entry): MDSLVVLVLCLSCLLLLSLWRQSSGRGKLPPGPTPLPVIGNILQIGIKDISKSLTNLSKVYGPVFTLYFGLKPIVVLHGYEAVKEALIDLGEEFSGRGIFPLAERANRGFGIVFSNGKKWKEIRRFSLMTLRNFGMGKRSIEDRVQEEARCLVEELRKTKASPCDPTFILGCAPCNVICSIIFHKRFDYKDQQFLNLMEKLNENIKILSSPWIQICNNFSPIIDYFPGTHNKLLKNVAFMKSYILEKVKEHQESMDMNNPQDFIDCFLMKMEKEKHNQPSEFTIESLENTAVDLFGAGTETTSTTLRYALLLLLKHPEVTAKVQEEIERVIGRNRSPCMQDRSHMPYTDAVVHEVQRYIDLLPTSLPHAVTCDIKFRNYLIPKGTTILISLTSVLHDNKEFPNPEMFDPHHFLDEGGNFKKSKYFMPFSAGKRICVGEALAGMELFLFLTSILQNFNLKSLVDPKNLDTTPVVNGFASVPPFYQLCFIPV
Chain of Cytochrome P450 2D6 (P10635 whole entry): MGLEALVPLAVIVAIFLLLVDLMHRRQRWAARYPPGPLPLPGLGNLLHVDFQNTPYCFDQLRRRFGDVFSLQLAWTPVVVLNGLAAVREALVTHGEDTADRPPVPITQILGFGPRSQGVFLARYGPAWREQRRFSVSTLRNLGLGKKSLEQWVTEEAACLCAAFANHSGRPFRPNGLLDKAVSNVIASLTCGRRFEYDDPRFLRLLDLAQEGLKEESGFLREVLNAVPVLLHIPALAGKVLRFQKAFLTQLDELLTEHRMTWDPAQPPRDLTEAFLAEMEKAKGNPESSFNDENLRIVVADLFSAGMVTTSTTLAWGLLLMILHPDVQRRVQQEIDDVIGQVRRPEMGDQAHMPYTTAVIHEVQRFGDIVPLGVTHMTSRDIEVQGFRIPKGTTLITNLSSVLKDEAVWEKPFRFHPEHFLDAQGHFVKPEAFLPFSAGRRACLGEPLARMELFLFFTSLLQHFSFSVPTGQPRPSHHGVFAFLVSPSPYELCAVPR

In general, IC50 refers to the concentration that gives 50% inhibition. A word on the half-life: it is how long it takes for the measured level to halve. Read a high half-life as slow decline. In general, Cmax refers to the maximum level reached in the sampled fluid or tissue. The term bioavailability denotes the share of a dose that reaches the circulation, judged against a reference dose that is usually intravenous. One may read the solubility as the concentration that dissolves in the medium under given conditions. A low value points to a poorly soluble substance. Broadly, the AUC is the area under the concentration-time curve, a measure of exposure. Higher therefore signals high exposure. As usually defined, the clearance is a measure of how efficiently the substance is removed, as volume per time. Broadly, the ED50 is the dose that gives a 50% effect, or the effect in half of the subjects. The Emax is the maximal effect, on the per cent scale that the assay sets. The fraction unbound is free concentration divided by total concentration. Regarding `C[C@@H](Cn1c(=O)[nH]/c(=N\c2ccc(Oc3ccccn3)cc2)n(Cc2ccc(Cl)cc2)c1=O)C(=O)O`, the IC50 in series [1] was > 20 µM; in series [2], > 30 µM; in series [3], > 30 µM; in series [6] it was > 30 µM; in series [12], > 20 µM; in [13], > 20 µM. The IC50 in series [21] and in [22] was > 20 µM each time. Also, the half-life in [4] was 10.1 h. This molecule had a Cmax in series [5] of 1630 ng/mL. The Ratio in series [7] is 1.57; in series [23] it was 156.9. The bioavailability in series [8] came out at 52.8%; in series [9], 76.8%. Further, the “Cp(f)” value in series [10] was found to be 658 nM. In addition, the solubility in series [11] was 458 µg/mL (≈ 902 µM); in [16], 31.5 µg/mL (≈ 62 µM). Moreover, the AUC in [14] turned out to be 14000 ng·h/mL. Besides, in [15], the Activity is given as 64%. This molecule showed a clearance in series [17] of 2.7 mL/min/kg. The 50% effect level in series [18] (ED50) was put at a dose of 0.4 mg/kg. Besides, the Emax at 3 mg/kg in series [19] was 64%. The fraction unbound in series [20] turned out to be 0.01.
